Like-named read-outs stand apart in the source and are kept apart here.

This is an account of results in US20150225739A1 (priority 2014, published 2015).

The nature of data set [1]: In vivo quinacrine dosage determination in shrimp (mortality). Set-up: species or system Litopenaeus vannamei. The note with it: injected 0.5, 2.5 or 5 μg/g body weight, 20 shrimp per group, 2 weeks. As for the experimental part: To determine the optimal QC dosage for the challenge experiment, four groups of shrimp (20 shrimp per group) were injected with different doses ([…], 2.5 μg/g, or 5 μg/g body weight) of QC (10 mg/mL stock solution in PBS) or with PBS (negative control). The mortality of each group was observed and recorded every 12 h.
(§1) For the WSSV challenge experiment, groups of shrimp (14 shrimp per group) were injected either with WSSV (50 μl of 100× dilution of the virus stock) or with PBS as a negative control. These first injections were then immediately followed by a second injection of 50 μl of either QC (5 μg/g) or PBS. Pleopods were excised from 3 randomly selected shrimp from each group at 0, 1, 2, 6 and 9 days post-injection (dpi) and tested for WSSV infection as described below. A second replicate of this entire experiment was performed at the same time. No pleopods were collected from the shrimp in this second replicate. Instead, mortality was observed and recorded every 12 h.

A further data set has as its system WSSV. The data set is described as follows: In vivo quinacrine assay and WSSV challenge experiment in shrimp. Set-up: species or system Litopenaeus vannamei. As for the experimental part:
as §1
A commercial WSSV diagnostic kit (IQ2000 WSSV Detection and Prevention System, GeneReach Biotechnology Corp.) was used to determine WSSV infection levels. Briefly, genomic DNA extracted from the shrimp pleopod samples was isolated using the DTAB/CTAB extraction procedure according to the manufacturer's instructions. Next, competitive nested PCR analysis was performed using the extracted DNA samples. The PCR products were analyzed by electrophoresis with a 2% agarose gel. WSSV infection levels were determined according to the pattern of bands indicated in the kit's instructions.

Data set [2] relates to icp35 IRES. The note with it: Sf9 cells, 48 h, relative to untreated.
Data set [3] relates to Encephalomyocarditis Virus (EMCV) IRES. The note with it: dose-dependent; cited from earlier work.
The subject of data set [4] is hepatitis C virus (HCV) IRES. The note with it: dose-dependent; cited from earlier work.
The test system of another data set is poliovirus IRES. To be noted: dose-dependent; cited from earlier work.
The next data set has as its system cellular p53 IRES. The note with it: cited from earlier work.
For data set [5], the system named is icp35 IRES. The data set can be described thus: IRES activity under tunicamycin-induced ER stress, dual luciferase assay in Sf9 cells. It counts as cell-based, White spot syndrome virus. To be noted: tunicamycin 2.5 μg/ml added 24 h post-transfection, 15 h of treatment. As for the experimental part:
After 15 h of treatment, cells were harvested. One replicate of the harvested cells was subjected to a dual luciferase assay as described above. The other replicate was subjected to Western blotting to monitor the level of the phosphorylated proteins. For this assay, 2× sample buffer was added to the cells and the mixture was boiled for 10 minutes. An aliquot (15 μl) was separated on 15% SDS-PAGE and transferred onto the PVDF membrane as described above. The blots were then blocked with 5% BSA in TBST (0.01% of Tween 20 in TBS buffer) for 1 h at RT, and probed with the commercial primary antibodies Phospho-eIF2α (Ser51) (Cell Signaling) or EIF2S1 (Abeam). The antibodies were diluted 1:1,000 in 2.5% non-fat milk in TBST and applied for 16 h at 4° C. This step was followed by washing three times for 10 min at RT with TBST. The blots were then probed with anti-Rabbit or anti-Mouse IgG secondary antibody (Santa Cruz Biotechnology) diluted 1:10,000 in 2.5% BSA in TBST for 1 hr at RT, and washed three times for 10 min at RT with TBST. Western Lightning® Plus-ECL reagents were used for visualization as described above.

On to `CCN(CC)CCCC(C)Nc1c2ccc(Cl)cc2nc2ccc(OC)cc12` (stereo not drawn) [QC, quinacrine dihydrochioride], for which, in data set [1], the “survival of unchallenged shrimp” value is listed as “All but one of the shrimp (in the 0.5 μg/g group) survived”. The “mortality rate after WSSV challenge” value in the data set on WSSV (QC 5 μg/g injected immediately after WSSV inoculum, vs WSSV+PBS) is “significantly reduced”. The shrimp still alive result with WSSV (WSSV+QC group, QC 5 μg/g, 9 dpi) is listed as “over 70%”. Further, the “WSSV infection level in surviving shrimp (IQ2000 nested competitive PCR)” value in the data set on WSSV (WSSV+QC sample collection group, 1, 2, 6 and 9 dpi) is on record as “tested negative or had only a light infection”. Further, the “FL value (IRES-mediated firefly luciferase activity)” value with icp35 IRES [2] (QC 25 μM) and in the data set with icp35 IRES [2] (QC 30 μM) was “significantly reduced” in each case. Besides, the FL/RL ratio result in the data set with icp35 IRES [2] (QC 25 μM) and in the data set with icp35 IRES [2] (QC 30 μM) was “significantly reduced” each time. Also, the “RL value (cap-dependent Renilla luciferase activity)” value in the data set with icp35 IRES [2] ([…], QC 25 μM or 30 μM) is reported as “no significant effect”. The IRES activity entry (in data set [3]; in data set [4]; in the data set with poliovirus IRES) was “inhibited” throughout. Further, in the data set with cellular p53 IRES, the “sensitivity of IRES to QC” value is given as “not sensitive”.

On to tunicamycin, for which, in the data set on icp35 IRES [5], the “cap-dependent translation (RL activity)” value is given as “inhibited” and the “icp35 IRES-dependent translation (FL activity)” value is on record as “inhibited”.
